Molecular target: cGMP-inhibited 3',5'-cyclic phosphodiesterase 3A/3B (Homo sapiens, UniProt Q13370+Q14432)
Assay: Inhibition of phosphodiesterase (PDE) 3

cGMP-inhibited 3',5'-cyclic phosphodiesterase 3A/3B, sequence (Q14432 whole entry): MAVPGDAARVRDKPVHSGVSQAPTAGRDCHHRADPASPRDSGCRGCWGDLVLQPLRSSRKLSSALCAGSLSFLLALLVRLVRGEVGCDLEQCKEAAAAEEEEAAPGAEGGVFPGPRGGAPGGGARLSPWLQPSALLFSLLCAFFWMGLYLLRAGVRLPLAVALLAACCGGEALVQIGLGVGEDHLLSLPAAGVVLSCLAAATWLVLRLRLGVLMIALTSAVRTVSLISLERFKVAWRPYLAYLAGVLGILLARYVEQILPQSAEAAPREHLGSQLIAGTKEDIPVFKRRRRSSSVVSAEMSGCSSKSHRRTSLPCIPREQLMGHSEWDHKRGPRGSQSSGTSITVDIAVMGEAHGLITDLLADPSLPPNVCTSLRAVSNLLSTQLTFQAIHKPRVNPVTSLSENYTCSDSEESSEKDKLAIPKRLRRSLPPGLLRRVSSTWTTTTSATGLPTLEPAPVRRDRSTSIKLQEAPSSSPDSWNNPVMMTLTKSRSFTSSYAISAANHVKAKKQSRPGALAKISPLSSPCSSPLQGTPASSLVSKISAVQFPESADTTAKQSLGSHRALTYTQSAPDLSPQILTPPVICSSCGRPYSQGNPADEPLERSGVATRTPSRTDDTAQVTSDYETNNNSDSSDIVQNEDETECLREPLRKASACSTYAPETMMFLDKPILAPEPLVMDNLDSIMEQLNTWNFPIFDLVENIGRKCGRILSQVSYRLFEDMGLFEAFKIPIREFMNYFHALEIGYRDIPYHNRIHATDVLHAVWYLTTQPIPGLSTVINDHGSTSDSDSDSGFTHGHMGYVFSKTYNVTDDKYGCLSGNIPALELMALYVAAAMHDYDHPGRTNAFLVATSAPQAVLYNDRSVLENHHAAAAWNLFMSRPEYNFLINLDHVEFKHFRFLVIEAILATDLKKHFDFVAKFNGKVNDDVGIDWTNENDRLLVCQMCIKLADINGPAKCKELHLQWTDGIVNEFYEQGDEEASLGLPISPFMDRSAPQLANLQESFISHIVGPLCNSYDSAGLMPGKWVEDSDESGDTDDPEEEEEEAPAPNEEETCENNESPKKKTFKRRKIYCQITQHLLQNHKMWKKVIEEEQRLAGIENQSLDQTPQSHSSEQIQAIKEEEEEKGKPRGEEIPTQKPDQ
cGMP-inhibited 3',5'-cyclic phosphodiesterase 3A/3B, sequence (Q13370 whole entry): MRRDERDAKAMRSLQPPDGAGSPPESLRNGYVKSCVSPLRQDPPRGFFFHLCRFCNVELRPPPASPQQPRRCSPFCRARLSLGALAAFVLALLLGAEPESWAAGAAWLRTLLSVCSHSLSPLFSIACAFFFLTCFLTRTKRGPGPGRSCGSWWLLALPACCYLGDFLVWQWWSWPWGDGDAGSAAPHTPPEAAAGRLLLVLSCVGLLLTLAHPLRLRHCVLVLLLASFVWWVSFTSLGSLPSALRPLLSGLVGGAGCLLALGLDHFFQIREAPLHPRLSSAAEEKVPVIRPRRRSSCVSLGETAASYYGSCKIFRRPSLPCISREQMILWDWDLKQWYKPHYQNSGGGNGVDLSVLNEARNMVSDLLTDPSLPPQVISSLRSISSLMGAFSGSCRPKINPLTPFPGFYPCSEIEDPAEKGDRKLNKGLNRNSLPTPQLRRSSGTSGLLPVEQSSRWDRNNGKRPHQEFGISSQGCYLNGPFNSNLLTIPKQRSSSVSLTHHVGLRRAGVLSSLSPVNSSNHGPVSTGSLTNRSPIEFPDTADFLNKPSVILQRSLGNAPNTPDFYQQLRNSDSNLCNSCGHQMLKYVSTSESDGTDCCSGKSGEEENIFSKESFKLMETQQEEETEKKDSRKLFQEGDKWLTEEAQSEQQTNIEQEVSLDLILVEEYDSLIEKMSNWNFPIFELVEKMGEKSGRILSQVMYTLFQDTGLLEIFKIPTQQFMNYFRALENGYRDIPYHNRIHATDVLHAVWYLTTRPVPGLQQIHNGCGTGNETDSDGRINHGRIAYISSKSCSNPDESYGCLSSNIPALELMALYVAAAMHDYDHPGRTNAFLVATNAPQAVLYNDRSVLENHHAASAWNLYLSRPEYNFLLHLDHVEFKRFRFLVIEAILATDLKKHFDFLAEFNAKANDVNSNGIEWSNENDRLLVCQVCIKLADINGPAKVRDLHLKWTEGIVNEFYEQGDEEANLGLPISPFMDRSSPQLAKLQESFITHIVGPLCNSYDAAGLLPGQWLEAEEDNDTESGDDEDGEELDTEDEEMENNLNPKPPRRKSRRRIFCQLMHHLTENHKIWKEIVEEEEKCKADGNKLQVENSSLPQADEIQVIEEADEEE

IC50, > 100 µM:
COc1cccc(COc2cc(C(=O)O)cc(N3CC(c4ccc(OC)c(OC5CCCC5)c4)CC3=O)c2)c1 (centres undefined)
COc1cccc(COc2cc(C(=O)NN(C)C)cc(N3CC(c4ccc(OC)c(OC5CCCC5)c4)CC3=O)c2)c1 (centres undefined)
COc1cccc(COc2cccc(N3CC(c4ccc(OC)c(OC5CCCC5)c4)CC3=O)c2)c1 (centres undefined)
COc1ccc([C@@H]2CNC(=O)C2)cc1OC1CCCC1 (racemic) [Adeo]
